The record followed here is article PMC5460925, “Degradation Paradigm of the Gut Hormone, Pancreatic Polypeptide, by Hepatic and Renal Peptidases” (Endocrinology, 2017).

Where no end group is shown, it is not given here.

In series [1] the test system is food intake in C57/BL6 mice. The series is described as follows: Acute feeding studies (food intake) in overnight-fasted mice. It is filed as in vivo, mouse. The conditions noted are these: for inhibition of food intake over 24 hours vs saline: 0 to 24 hours. The procedure: All animal procedures were approved by the British Home Office, under the United Kingdom Animal (Scientific Procedures) Act 1986 (project license, 70/6402). Adult male C57/BL6 mice (Harlan, Wyton, UK) weighing 20 to 25 g were maintained in individual cages under controlled temperature (21°C to 23°C) and light (12-hour light/dark cycle, with lights on at 7:00 AM). The mice had ad libitum access to water and normal chow RM1 (Special Diet Services, Devon, UK), unless stated otherwise. For acclimatization, the mice were regularly handled and given 2 sham subcutaneous (SC) and/or intraperitoneal (IP) injections of saline. Before each feeding study, the mice were fasted overnight, and the injections were performed during the early light phase (8:00 to 10:00 AM). The mice were stratified by body weight. To investigate the anorectic effects of DPPIV-resistant analogs, the mice were stratified into treatment groups and administered a SC injection (maximum volume, 100 µL) of vehicle, PP, PP3-36, PP2-36, or PP-Ala0 (n = […]). Food intake was measured at 1, 2, 4, and 8 hours after injection to compare the peptides with short half-lives (PP and its endogenous degradation product, PP3-36) and, in a separate experiment, at 24 hours after injection for peptides with modifications (PP-Ala0 and PP2-36, using PP as the comparator). A PP analog with global modifications for enzyme resistance (PP-x) was also investigated and administered as a SC injection (maximum volume, 100 µL) at a high and low dose (n = 9). Food intake was measured at 1, 2, 4, and 8 hours after injection. […] This dose of phosphoramidon was sufficient to inhibit NEP activity ([30]). Food intake was measured at 1, 2, 4, 8, 24, and 48 hours after injection.

Series [2] addresses T1, mouse Y4 receptor (Mus musculus, UniProt Q61041).
T1 construct: expressed in transfected cells; host or cells: HEK293
The experiment in a line: Y4 receptor binding assay (125I-PP competition). The procedure: Transfected HEK293 cells overexpressing the mouse Y4 receptor were prepared and binding assays performed as previously described ([29]). Isolated cell membranes (protein concentration, 1 to 2 µg/mL) were incubated for 90 minutes in siliconized polypropylene tubes together with ^125I-PP [1 kBq (100 pM)] and a dose response of unlabeled competing peptides at 4°C in binding buffer [20 mM HEPES (pH 7.4), 1 mM MgCl2, 5 mM CaCl2, 0.1% bovine serum albumin, and protease inhibitors (0.2 mM phenylmethylsulfonyl fluoride, 0.1 mM Diprotin A, and 10 µM phosphoramidon ( all from Sigma-Aldrich)] in a final assay volume of 0.5 mL. PP was iodinated as previously described ([8]) using ^125I from GE Healthcare Life Sciences (Amersham, UK). Pelleted membranes were washed with 5 mL ice-cold assay buffer, and the membranes were centrifuged at 15,874g for 3 minutes at 4°C, as described, to separate bound and free label. Bound radioactivity was measured using a γ-counter (NE 1600; NE Technology Ltd, Reading, UK). Specific binding was calculated as the difference between the amount of ^125I-PP bound in the absence (total binding) and presence of 5 μM unlabeled competing peptide (nonsaturable binding). All curves were performed with points in triplicate. Half maximal inhibitory concentration values were calculated using Prism, version 5.01 (GraphPad Software Inc., San Diego, CA) using a three-parameter logistic equation for the nonlinear regression fit: Y = bottom + (top − bottom)/1 + 10^(LogEC50 − X), where EC50 is the half maximal effective concentration.

Series [3] can be described thus: in vivo. The conditions noted are these: sc. Set-up: species or system mouse. The procedure: The mice were divided into four treatment groups according to body weight. A protocol similar to that used for the phosphoramidon feeding study was used, with an IP injection, followed by a SC injection 15 minutes later (maximum volume, 50 µL for each injection) of phosphoramidon (0, 7, 20, and 60 mg/kg IP), followed by PP (150 nmol/kg SC in saline; n = 4 to 6; […]). […] Additional mice (n = 2) underwent overnight fasting and were culled at 0 minutes after injection of the control substances (saline SC and vehicle IP) for measurement of the baseline levels of circulating PP. The blood was immediately removed via cardiac puncture and centrifuged at 6000 rpm (Sigma 3K18; 12348 rotor; Sigma-Aldrich) for 10 minutes. The plasma was stored at −20°C until analysis. The plasma samples were assayed using an established in-house PP RIA ([8]). The anti-PP antibody was elevated in rabbit against human PP and recognized PP (and other truncated forms) but not in other PP-fold peptides or gastrointestinal peptides. ^125I-PP was prepared using the iodogen method and purified using HPLC. The assay was performed in duplicate in a total volume of 700 µL of 0.06 M phosphate buffer (pH 7.35) containing 0.3% bovine serum albumin. The samples were incubated for 3 days at 4°C before separation of free and antibody-bound ^125I-PP using dextran-coated charcoal. The sensitivity was ≤5 fmol/tube. The intra-assay coefficient of variation was 6%.

Setting [4] is: 150 nmol/kg SC, overnight-fasted C57/BL6 mice, n = 7.

T1 sequence (Q61041 whole entry): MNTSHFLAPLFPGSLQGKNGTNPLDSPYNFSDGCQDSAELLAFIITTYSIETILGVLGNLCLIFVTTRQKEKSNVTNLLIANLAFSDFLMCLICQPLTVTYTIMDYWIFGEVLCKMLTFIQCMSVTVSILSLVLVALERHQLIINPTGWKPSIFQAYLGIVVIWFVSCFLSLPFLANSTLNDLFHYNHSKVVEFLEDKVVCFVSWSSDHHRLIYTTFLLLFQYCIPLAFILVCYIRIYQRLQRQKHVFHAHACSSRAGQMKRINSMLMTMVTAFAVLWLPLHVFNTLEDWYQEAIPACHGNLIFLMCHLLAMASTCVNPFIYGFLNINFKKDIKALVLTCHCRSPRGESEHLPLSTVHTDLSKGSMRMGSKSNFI

As for `CC[C@H](C)[C@H](NC(=O)[C@H](Cc1ccc(O)cc1)NC(=O)[C@H](CCCNC(=N)N)NC(=O)[C@H](CCCNC(=N)N)NC(=O)[C@H](CC(C)C)NC(=O)[C@H](CC(=O)O)NC(=O)[C@H](C)NC(=O)[C@H](C)NC(=O)[C@H](Cc1ccc(O)cc1)NC(=O)[C@H](CCC(N)=O)NC(=O)[C@H](C)NC(=O)[C@H](CCSC)NC(=O)[C@H](CCC(N)=O)NC(=O)[C@H](CCC(=O)O)NC(=O)[C@@H]1CCCN1C(=O)[C@@H](NC(=O)[C@H](C)NC(=O)[C@H](CC(N)=O)NC(=O)[C@H](CC(=O)O)NC(=O)CNC(=O)[C@@H]1CCCN1C(=O)[C@H](Cc1ccc(O)cc1)NC(=O)[C@@H](NC(=O)[C@@H]1CCCN1C(=O)[C@H](CCC(=O)O)NC(=O)[C@H](CC(C)C)NC(=O)[C@@H]1CCCN1)C(C)C)[C@@H](C)O)C(=O)N[C@@H](CC(N)=O)C(=O)N[C@@H](CCSC)C(=O)N[C@@H](CC(C)C)C(=O)N[C@H](C(=O)N[C@@H](CCCNC(=N)N)C(=O)N1CCC[C@H]1C(=O)N[C@@H](CCCNC(=N)N)C(=O)N[C@@H](Cc1ccc(O)cc1)C(N)=O)[C@@H](C)O` [PP2-36], in series [1] (setting [4]), the “inhibition of food intake over 24 hours vs saline” value is listed as “statistically significant inhibition of food intake”.
For the compound `CC[C@H](C)[C@H](NC(=O)[C@H](Cc1ccc(O)cc1)NC(=O)[C@H](CCCNC(=N)N)NC(=O)[C@H](CCCNC(=N)N)NC(=O)[C@H](CC(C)C)NC(=O)[C@H](CC(=O)O)NC(=O)[C@H](C)NC(=O)[C@H](C)NC(=O)[C@H](Cc1ccc(O)cc1)NC(=O)[C@H](CCC(N)=O)NC(=O)[C@H](C)NC(=O)[C@H](CCSC)NC(=O)[C@H](CCC(N)=O)NC(=O)[C@H](CCC(=O)O)NC(=O)[C@@H]1CCCN1C(=O)[C@@H](NC(=O)[C@H](C)NC(=O)[C@H](CC(N)=O)NC(=O)[C@H](CC(=O)O)NC(=O)CNC(=O)[C@@H]1CCCN1C(=O)[C@H](Cc1ccc(O)cc1)NC(=O)[C@@H](NC(=O)[C@@H]1CCCN1C(=O)[C@H](CCC(=O)O)NC(=O)[C@H](CC(C)C)NC(=O)[C@@H]1CCCN1C(=O)[C@H](C)NC(=O)[C@H](C)N)C(C)C)[C@@H](C)O)C(=O)N[C@@H](CC(N)=O)C(=O)N[C@@H](CCSC)C(=O)N[C@@H](CC(C)C)C(=O)N[C@H](C(=O)N[C@@H](CCCNC(=N)N)C(=O)N1CCC[C@H]1C(=O)N[C@@H](CCCNC(=N)N)C(=O)N[C@@H](Cc1ccc(O)cc1)C(N)=O)[C@@H](C)O` [PP-Ala0], the IC50 in series [2] (membranes of HEK293 cells overexpressing mouse Y4 receptor, competition with 125I-PP (100 pM), 90 min, 4°C, mean ± SEM of three to five separate experiments, read-out: IC50 (half maximal inhibitory concentration), Y4 receptor binding affinity) is 0.35 ± 0.05 nM. In series [1] (setting [4]), the “inhibition of food intake over 24 hours vs saline” value is given as “statistically significant inhibition of food intake”. This compound also returned a level at time molar at 0.75 h in series [3] (male, C57BL/6, mouse, 150 nmol/kg, plasma level of PP-Ala0 at 45 minutes, alone) of 4.92 ± 0.48 nM. The compound further had a level at time molar at 1.5 h in series [3] (male, C57BL/6, mouse, 150 nmol/kg, plasma level of PP-Ala0 at 90 minutes, alone) of 1.81 ± 0.319 nM. Besides, the “decrease of plasma level (peptide cleared) between 45 and 90 minutes after injection” value in series [3] (mouse) is on record as 60%.
For the compound `CC(C)C[C@H](NP(=O)(O)O[C@@H]1O[C@@H](C)[C@H](O)[C@@H](O)[C@H]1O)C(=O)N[C@@H](Cc1c[nH]c2ccccc12)C(=O)O` [phosphoramidon], the “effect on food intake, inhibitor alone” value in series [1] (phosphoramidon 5 mg/kg IP then saline SC, any interval up to 48 hours) is on record as “did not cause a substantial reduction of food intake”.
With `N[C@@H](CC(=O)N1CCn2c(nnc2C(F)(F)F)C1)Cc1cc(F)c(F)cc1F` [sitagliptin], in series [1] (sitagliptin 6 mg/kg IP then saline SC, any interval up to 8 hours), the “effect on food intake, inhibitor alone” value is “did not cause a substantial reduction of food intake”.
Consider “GAPLEPTYPGDNATPEQLARYAAALRRYINKLTRPRY-NH2 (C-terminus assumed) [PP-x]”, for which, in series [1] (25 nmol/kg SC, overnight-fasted C57BL/6 mice, n = 9, mean ± SEM), the “cumulative food intake at 8 hours (0- to 8-hour interval), low dose” value was 1.98 ± 0.14 g. Further, in series [1] (150 nmol/kg SC, overnight-fasted C57BL/6 mice, n = 9, mean ± SEM), the “food intake at 8 hours, high dose” value was determined as 1.04 ± 0.09 g. For the same compound, in series [3] (mouse), the “plasma level at 120 minutes relative to PP” value is reported as “almost threefold”. The compound also came in with a level at time molar at 0.5 h in series [3] (mouse, 100 nmol/kg, plasma peptide level at 30 minutes after injection) of 26.9 nM. Besides, the level at time molar at 2 h in series [3] (mouse, 100 nmol/kg, plasma peptide level at 120 minutes after injection) turned out to be 5.81 ± 0.215 nM.
As to “PP3-36: DPPIV degradation product of PP (LEPVYPGDNATPEQMAQYAADLRRYINMLTRPRY-NH2; ends and bridges not checked; UniProt P01298 32-65, looked up, fragment)”, the “affinity to the Y4 receptor compared with PP” value in series [2] (DPPIV degradation product compared with PP, statement in discussion) is listed as “no substantial reduction in affinity”. The “cumulative food intake 0 to 8 hours” value in series [1] (150 nmol/kg SC, overnight-fasted C57/BL6 mice, n = 7, mean ± SEM) is 1.71 ± 0.29 g.
